ChEMBL document CHEMBL5291721, “A preclinical secondary pharmacology resource illuminates target-adverse drug reaction associations of marketed drugs” (Nat Commun, 2023)

How the values were obtained:
[1] = molecular target: T1, 5-hydroxytryptamine receptor 1A (Homo sapiens, UniProt P08908); assay type: functional, cell-based
T1 sequence (P08908 whole entry): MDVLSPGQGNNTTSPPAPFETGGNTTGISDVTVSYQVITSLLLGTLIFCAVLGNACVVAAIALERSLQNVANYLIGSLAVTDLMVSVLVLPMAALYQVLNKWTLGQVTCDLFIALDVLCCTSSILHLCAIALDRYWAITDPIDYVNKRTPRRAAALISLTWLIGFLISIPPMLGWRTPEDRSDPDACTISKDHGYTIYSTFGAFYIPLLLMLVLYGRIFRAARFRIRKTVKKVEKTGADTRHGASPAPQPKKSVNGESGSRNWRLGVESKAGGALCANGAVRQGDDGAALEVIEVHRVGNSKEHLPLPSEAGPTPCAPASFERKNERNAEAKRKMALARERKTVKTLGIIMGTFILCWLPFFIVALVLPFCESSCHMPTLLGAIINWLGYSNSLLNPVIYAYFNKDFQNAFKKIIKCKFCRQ

[2] = molecular target: Sodium-dependent dopamine transporter (Homo sapiens, UniProt Q01959)
B2 bradykinin receptor = molecular target: T2, B2 bradykinin receptor (Homo sapiens, UniProt P30411)
T2 sequence (P30411 whole entry): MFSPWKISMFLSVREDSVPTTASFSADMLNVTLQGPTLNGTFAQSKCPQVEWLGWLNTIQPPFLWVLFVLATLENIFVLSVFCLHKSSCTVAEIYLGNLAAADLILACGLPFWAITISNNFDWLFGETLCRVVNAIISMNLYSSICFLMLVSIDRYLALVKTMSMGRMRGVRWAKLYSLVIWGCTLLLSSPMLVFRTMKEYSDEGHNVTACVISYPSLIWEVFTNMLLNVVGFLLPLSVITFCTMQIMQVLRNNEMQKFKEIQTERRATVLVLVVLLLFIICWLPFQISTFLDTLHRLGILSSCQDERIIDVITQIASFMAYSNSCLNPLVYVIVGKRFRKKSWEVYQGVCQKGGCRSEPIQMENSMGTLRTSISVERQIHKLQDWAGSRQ

[3] = molecular target: T3, Type-1 angiotensin II receptor (Homo sapiens, UniProt P30556)
T3 sequence (P30556 whole entry): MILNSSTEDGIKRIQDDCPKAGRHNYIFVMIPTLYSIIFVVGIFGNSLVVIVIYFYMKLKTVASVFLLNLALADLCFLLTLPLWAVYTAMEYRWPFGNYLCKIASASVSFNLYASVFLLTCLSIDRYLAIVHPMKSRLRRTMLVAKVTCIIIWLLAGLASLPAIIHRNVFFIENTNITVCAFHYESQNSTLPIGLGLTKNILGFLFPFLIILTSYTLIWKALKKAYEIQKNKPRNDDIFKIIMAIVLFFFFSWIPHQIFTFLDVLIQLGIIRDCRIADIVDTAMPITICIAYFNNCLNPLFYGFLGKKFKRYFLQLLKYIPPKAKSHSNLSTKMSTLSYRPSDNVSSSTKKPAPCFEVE

[4] = molecular target: cGMP-inhibited 3',5'-cyclic phosphodiesterase 3A (Homo sapiens, UniProt Q14432); assay type: functional
[5] = molecular target: T4, Alpha-2A adrenergic receptor (Homo sapiens, UniProt P08913); assay type: functional, cell-based
T4 sequence (P08913 whole entry): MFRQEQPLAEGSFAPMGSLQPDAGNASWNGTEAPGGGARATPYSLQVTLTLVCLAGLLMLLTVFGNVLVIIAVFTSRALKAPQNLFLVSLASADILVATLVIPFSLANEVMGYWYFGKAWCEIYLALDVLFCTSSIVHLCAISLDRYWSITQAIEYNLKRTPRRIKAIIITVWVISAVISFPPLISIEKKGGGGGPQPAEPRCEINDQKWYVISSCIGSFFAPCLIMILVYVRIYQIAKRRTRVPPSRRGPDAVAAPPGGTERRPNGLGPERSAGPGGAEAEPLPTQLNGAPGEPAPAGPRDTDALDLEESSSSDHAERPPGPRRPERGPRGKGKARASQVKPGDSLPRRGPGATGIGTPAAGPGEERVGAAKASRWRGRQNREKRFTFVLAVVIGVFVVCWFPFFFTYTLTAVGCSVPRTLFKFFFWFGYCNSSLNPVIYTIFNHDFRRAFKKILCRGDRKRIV

[6] = molecular target: T5, Alpha-1A adrenergic receptor (Homo sapiens, UniProt P35348); assay type: functional, cell-based
T5 sequence (P35348 whole entry): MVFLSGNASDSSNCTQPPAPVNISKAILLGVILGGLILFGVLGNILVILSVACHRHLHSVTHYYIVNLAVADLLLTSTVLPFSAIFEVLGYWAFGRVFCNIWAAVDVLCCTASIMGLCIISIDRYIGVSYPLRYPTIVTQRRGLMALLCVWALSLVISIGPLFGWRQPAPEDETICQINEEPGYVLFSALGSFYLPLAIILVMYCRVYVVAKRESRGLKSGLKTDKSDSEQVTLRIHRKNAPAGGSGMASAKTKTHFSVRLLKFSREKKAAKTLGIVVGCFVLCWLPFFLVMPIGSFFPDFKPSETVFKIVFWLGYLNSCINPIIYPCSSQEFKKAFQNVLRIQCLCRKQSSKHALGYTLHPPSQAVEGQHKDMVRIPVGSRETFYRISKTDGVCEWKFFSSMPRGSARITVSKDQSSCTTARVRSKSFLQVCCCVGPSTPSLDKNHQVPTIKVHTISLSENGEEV

[7] = molecular target: T6, 5-hydroxytryptamine receptor 2C (Homo sapiens, UniProt P28335)
T6 sequence (P28335 whole entry): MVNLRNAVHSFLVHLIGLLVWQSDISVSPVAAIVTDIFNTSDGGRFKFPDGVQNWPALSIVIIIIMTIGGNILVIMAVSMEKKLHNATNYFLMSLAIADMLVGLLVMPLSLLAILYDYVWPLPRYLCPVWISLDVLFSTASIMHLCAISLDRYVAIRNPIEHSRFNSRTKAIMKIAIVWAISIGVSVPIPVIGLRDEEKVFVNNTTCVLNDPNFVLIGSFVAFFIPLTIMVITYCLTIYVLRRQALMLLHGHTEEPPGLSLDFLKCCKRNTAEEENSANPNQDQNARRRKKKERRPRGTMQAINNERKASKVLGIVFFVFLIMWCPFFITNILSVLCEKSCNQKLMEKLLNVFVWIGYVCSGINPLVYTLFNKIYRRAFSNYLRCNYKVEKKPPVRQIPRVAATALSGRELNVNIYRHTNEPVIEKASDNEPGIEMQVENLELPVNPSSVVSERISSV

[8] = molecular target: Kappa-type opioid receptor (Homo sapiens, UniProt P41145)
[9] = molecular target: 5-hydroxytryptamine receptor 2A (Homo sapiens, UniProt P28223); assay type: functional, cell-based
Further: assay procedure not described here.

Sequence of cGMP-inhibited 3',5'-cyclic phosphodiesterase 3A (Q14432 whole entry): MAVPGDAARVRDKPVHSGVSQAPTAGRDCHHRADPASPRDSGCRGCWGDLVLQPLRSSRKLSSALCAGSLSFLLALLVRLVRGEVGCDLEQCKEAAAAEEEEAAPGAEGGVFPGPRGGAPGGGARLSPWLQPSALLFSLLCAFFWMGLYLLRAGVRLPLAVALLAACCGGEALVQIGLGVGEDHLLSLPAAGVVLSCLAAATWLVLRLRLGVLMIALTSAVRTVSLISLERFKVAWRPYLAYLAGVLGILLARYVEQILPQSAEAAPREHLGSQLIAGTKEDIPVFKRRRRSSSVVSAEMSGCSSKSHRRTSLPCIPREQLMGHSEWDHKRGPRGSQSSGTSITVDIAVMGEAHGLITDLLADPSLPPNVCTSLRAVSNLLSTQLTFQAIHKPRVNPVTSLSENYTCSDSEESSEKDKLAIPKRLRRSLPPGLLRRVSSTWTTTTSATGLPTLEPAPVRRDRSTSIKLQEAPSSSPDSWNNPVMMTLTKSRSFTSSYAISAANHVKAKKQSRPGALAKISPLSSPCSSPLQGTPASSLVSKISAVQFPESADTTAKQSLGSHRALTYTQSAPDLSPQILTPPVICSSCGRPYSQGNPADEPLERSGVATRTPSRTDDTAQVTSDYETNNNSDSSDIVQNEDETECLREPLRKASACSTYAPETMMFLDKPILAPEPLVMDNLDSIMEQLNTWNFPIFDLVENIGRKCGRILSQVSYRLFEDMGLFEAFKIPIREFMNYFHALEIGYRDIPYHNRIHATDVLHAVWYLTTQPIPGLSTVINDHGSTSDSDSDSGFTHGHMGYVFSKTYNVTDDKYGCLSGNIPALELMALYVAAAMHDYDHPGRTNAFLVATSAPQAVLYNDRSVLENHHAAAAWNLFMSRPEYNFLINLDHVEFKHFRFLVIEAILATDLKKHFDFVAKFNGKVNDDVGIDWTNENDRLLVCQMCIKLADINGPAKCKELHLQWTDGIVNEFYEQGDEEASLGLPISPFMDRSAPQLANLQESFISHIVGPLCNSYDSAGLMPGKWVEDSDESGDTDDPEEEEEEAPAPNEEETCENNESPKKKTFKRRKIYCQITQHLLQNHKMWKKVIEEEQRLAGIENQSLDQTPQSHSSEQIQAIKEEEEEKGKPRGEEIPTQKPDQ
Sequence of Sodium-dependent dopamine transporter (Q01959 whole entry): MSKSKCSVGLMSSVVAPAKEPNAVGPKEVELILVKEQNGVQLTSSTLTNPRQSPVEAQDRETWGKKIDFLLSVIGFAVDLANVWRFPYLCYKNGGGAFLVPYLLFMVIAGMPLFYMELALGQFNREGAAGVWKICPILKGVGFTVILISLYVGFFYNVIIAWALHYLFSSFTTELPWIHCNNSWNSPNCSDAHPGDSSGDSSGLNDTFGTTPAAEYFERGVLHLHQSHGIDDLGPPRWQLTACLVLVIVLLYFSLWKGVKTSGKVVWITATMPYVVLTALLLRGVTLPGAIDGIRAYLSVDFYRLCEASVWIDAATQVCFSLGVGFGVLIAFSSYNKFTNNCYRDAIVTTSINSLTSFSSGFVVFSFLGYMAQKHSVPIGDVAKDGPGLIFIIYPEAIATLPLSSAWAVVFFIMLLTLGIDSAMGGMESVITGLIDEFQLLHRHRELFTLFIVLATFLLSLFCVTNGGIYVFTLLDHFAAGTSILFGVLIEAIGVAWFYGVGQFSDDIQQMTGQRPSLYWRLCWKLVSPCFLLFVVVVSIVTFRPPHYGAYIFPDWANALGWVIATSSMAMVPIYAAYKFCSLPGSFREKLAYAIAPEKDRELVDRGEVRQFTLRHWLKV
Sequence of 5-hydroxytryptamine receptor 2A (P28223 whole entry): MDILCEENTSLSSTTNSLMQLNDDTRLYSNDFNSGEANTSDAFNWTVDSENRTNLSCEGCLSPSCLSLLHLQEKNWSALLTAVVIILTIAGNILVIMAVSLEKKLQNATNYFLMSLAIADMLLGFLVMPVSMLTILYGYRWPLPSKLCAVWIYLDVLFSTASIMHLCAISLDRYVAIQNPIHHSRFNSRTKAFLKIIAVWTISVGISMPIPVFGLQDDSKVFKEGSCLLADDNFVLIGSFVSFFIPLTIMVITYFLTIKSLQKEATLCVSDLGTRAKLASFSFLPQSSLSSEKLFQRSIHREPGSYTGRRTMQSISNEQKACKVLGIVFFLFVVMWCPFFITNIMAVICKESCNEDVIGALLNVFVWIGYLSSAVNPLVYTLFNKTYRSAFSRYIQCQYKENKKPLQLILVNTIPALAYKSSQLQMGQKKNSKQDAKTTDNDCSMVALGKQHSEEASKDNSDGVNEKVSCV
Sequence of Kappa-type opioid receptor (P41145 whole entry): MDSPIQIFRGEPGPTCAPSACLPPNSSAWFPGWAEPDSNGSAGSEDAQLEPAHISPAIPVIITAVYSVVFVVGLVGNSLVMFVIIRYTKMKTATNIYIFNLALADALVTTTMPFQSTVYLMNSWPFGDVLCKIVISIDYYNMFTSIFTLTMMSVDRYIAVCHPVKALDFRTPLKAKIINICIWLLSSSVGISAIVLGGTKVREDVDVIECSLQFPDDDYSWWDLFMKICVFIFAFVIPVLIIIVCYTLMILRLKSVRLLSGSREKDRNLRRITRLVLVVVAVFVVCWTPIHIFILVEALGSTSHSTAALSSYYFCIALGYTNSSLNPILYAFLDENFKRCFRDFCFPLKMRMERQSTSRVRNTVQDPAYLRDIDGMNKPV

Compound	AC50 [1]	AC50 [2]	AC50 (B2 bradykinin receptor)	AC50 [3]	AC50 [4]	AC50 [5]	AC50 [7]	AC50 [8]	AC50 [9]	AC50 [6]
N=C(N)NC(=O)c1nc(Cl)c(N)nc1N [AMILORIDE]	> 30 µM	> 30 µM	> 30 µM	> 30 µM	> 30 µM	> 30 µM	> 30 µM	> 30 µM	–	> 30 µM
COc1ccc(-c2cc(=S)ss2)cc1 [ANETHOLTRITHION]	> 30 µM	10 µM	> 30 µM	9.3 µM	> 30 µM	> 30 µM	> 30 µM	> 30 µM	> 30 µM	> 30 µM
CC(C)(C)NCC(O)COc1ccccc1C#N (centres undefined) [BUNITROLOL]	> 30 µM	–	–	–	> 30 µM	> 30 µM	> 30 µM	> 30 µM	> 30 µM	> 30 µM
CN(C)CCC(O)(c1ccccc1)c1ccccc1Cl (centres undefined) [CHLOPHEDIANOL]	> 10 µM	> 10 µM	> 10 µM	> 10 µM	> 30 µM	> 10 µM	8.3 µM	7.1 µM	> 10 µM	–
COc1cccc2c1C(=O)c1c(O)c3c(c(O)c1C2=O)C[C@@](O)(C(=O)CO)C[C@@H]3O[C@H]1C[C@H](N)[C@H](O)[C@H](C)O1 [DOXORUBICIN]	> 30 µM	> 30 µM	> 30 µM	> 30 µM	> 30 µM	> 10 µM	> 30 µM	> 10 µM	–	16 µM
CC(C)(Oc1ccc(Cl)cc1)C(=O)OCCOC(=O)c1cccnc1 [ETOFIBRATE]	–	> 30 µM	> 30 µM	> 30 µM	> 30 µM	> 30 µM	> 30 µM	> 30 µM	> 30 µM	> 30 µM
CCn1c(=O)c2c(nc(/C=C/c3ccc(OC)c(OC)c3)n2C)n(CC)c1=O [ISTRADEFYLLINE]	–	> 30 µM	–	–	> 30 µM	–	–	–	> 30 µM	> 30 µM
COc1ccc(C(=O)c2ccccc2)c(O)c1 [OXYBENZONE]	> 30 µM	–	–	–	> 30 µM	> 30 µM	> 30 µM	> 30 µM	> 30 µM	> 30 µM
CCC(=O)c1ccc2c(c1)N(CC(C)N(C)C)c1ccccc1S2 (centres undefined) [PROPIOMAZINE]	> 30 µM	> 10 µM	> 10 µM	> 10 µM	> 30 µM	> 10 µM	0.18 µM	1.7 µM	> 10 µM	–
Cc1cn(-c2cc(NC(=O)c3ccc(C)c(Nc4nccc(-c5cnccn5)n4)c3)cc(C(F)(F)F)c2)cn1 [RADOTINIB]	–	> 30 µM	–	–	30 µM	–	–	–	> 30 µM	> 30 µM
Cc1ccc(O)c([C@H](CCN(C(C)C)C(C)C)c2ccccc2)c1 [TOLTERODINE]	> 10 µM	> 10 µM	–	–	–	> 10 µM	> 30 µM	6.71 µM	–	> 30 µM
Oc1cc(Cl)ccc1Oc1ccc(Cl)cc1Cl [TRICLOSAN]	> 30 µM	24 µM	> 30 µM	24 µM	> 30 µM	> 30 µM	> 30 µM	> 30 µM	> 30 µM	> 30 µM

More lines, main results first:

AC50 [1]	AC50 [2]	AC50 (B2 bradykinin receptor)	AC50 [3]	AC50 [4]	AC50 [5]	AC50 [7]	AC50 [8]	AC50 [9]	Compound	AC50 [6]
> 30 µM	> 30 µM	> 30 µM	> 30 µM	> 30 µM	> 30 µM	> 30 µM	19 µM	> 30 µM	C[C@]12CCC(=O)C=C1C=C[C@@H]1[C@@H]2CC[C@@]2(C)[C@H]1CC[C@@]21CCC(=O)O1 [CANRENONE]	> 30 µM
> 30 µM	> 30 µM	> 3 µM	> 30 µM	> 30 µM	> 30 µM	8.7 µM	> 30 µM	> 30 µM	C[C@]12C=CC(=O)C=C1C(Cl)=C[C@@H]1[C@@H]2[C@@H](O)C[C@@]2(C)[C@H]1CC[C@]2(O)C(=O)CO [CLOPREDNOL]	> 30 µM
> 30 µM	> 30 µM	> 30 µM	> 30 µM	> 30 µM	–	> 30 µM	> 30 µM	> 30 µM	C[C@]12CCC(=O)C=C1[C@@H]1C[C@@H]1[C@H]1[C@@H]3[C@@H]4C[C@@H]4[C@@]4(CCC(=O)O4)[C@@]3(C)CC[C@@H]12 [DROSPIRENONE]	> 30 µM
> 10 µM	> 30 µM	> 30 µM	> 30 µM	> 30 µM	> 10 µM	> 30 µM	> 10 µM	–	C[C@]12C=CC(=O)C=C1CC[C@@H]1[C@@H]2[C@@H](O)C[C@@]2(C)[C@H]1CC[C@]2(O)C(=O)CO [PREDNISOLONE]	> 30 µM
> 30 µM	> 10 µM	> 10 µM	> 10 µM	> 30 µM	> 10 µM	> 30 µM	> 10 µM	> 30 µM	CN(C)[C@@H]1C(O)=C(C(=O)NCN2CCCC2)C(=O)[C@@]2(O)C(O)=C3C(=O)c4c(O)cccc4[C@@](C)(O)[C@H]3C[C@@H]12 [ROLITETRACYCLINE]	> 30 µM
> 30 µM	> 30 µM	> 30 µM	> 30 µM	> 30 µM	> 30 µM	> 30 µM	> 30 µM	–	CC1(C)O[C@@H]2C[C@H]3[C@@H]4CCC5=CC(=O)C=C[C@]5(C)[C@@]4(F)[C@@H](O)C[C@]3(C)[C@]2(C(=O)CO)O1 [TRIAMCINOLONE ACETONIDE]	–
